Data reported in patent US8952024B2, “Herbicidal pyrimidone derivatives” (E I du Pont de Nemours and Company, priority 2009, dated 2015).

Tests used:
Type in all cases: in vivo
[1] = test system: umbrella sedge (Cyperus difformis); assay: Test B flooded paddy test; details: for Plant response rating, Flood, Sedge, Umbrella: 250 g ai/ha, flooded paddy test, visual rating on 0 to 100 scale (0 no effect, 100 complete control) after 13 to 15 days; for Plant response rating, Sedge, Umbrella: Flood (flooded paddy test), 62 g ai/ha, 13 to 15 days
In short: (§1)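 Visual scores run from 0 (no effect) to 100 (complete control), assigned by comparison with controls 13 to 15 days after treatment. Test compounds went straight into water standing 3 cm above the soil, around plants at the 2-leaf stage kept in a greenhouse.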

[2] = test system: barnyardgrass (Echinochloa crus-galli); assay: Test B flooded paddy test; details: for Plant response rating, Flood, Barnyardgrass: 250 g ai/ha, flooded paddy test, visual rating on 0 to 100 scale (0 no effect, 100 complete control) after 13 to 15 days; for Plant response rating, Barnyardgrass: Flood (flooded paddy test), 62 g ai/ha, 13 to 15 days
In short: as §1

[3] = test system: rice (Oryza sativa); assay: Test B flooded paddy test; details: for Plant response rating, Flood, Rice: 250 g ai/ha, flooded paddy test, visual rating on 0 to 100 scale (0 no effect, 100 complete control) after 13 to 15 days; for Plant response rating, Rice: Flood (flooded paddy test), 62 g ai/ha, 13 to 15 days
In short: as §1

[4] = test system: ducksalad (Heteranthera limosa); assay: Test B flooded paddy test; details: for Plant response rating, Flood, Ducksalad: 250 g ai/ha, flooded paddy test, visual rating on 0 to 100 scale (0 no effect, 100 complete control) after 13 to 15 days
In short: as §1

[5] = test system: winter barley (Hordeum vulgare); assay: Test B postemergence plant response
In short: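 Plants at the 1- to 4-leaf stage (2 to 18 cm tall), grown in pots of peat moss/vermiculite medium with wetting agent and starter nutrients, received postemergence applications of test chemicals. After 13 to 15 days in a greenhouse, injury was rated visually against untreated controls on a 0 (no effect) to 100 (complete control) scale.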

[6] = test system: wheat (Triticum aestivum); assay: Test A pre-/postemergence plant response
In short: (§2)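 Plants grown from seed in a loam soil and sand mix received test compounds both as a preemergence soil spray and, at the same time, as a postemergence spray at the one- to two-leaf stage. Injury was judged visually against untreated controls roughly ten days later, 0 meaning no effect and 100 complete control.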

[7] = test system: barnyardgrass (Echinochloa crus-galli); assay: Test A pre-/postemergence plant response
In short: as §2

[8] = test system: giant foxtail (Setaria faberii); assay: Test A pre-/postemergence plant response
In short: as §2

[9] = test system: corn (Zea mays); assay: Test A pre-/postemergence plant response
In short: as §2

[10] = test system: morningglory (Ipomoea spp.); assay: Test A pre-/postemergence plant response
In short: as §2

[11] = test system: pigweed (Amaranthus retroflexus); assay: Test A pre-/postemergence plant response
In short: as §2

[12] = test system: velvetleaf (Abutilon theophrasti); assay: Test A pre-/postemergence plant response
In short: as §2

[13] = test system: large crabgrass (Digitaria sanguinalis); assay: Test A pre-/postemergence plant response
In short: as §2

[14] = scale 0 to 100, 0 is no effect, 100 is complete control
[15] = Postemergence, 125 g ai/ha, visual injury, 0 to 100 scale (0 no effect, 100 complete control), approx. ten days
[16] = Postemergence, 500 g ai/ha, 0 to 100 scale, 0 = no effect, 100 = complete control, approx. ten days
[17] = Preemergence, 125 g ai/ha, 0 to 100 scale, 0 = no effect, 100 = complete control
[18] = Preemergence, 500 g ai/ha, visual injury, 0 to 100 scale (0 no effect, 100 complete control), approx. ten days
[19] = scale of 0 to 100 where 0 is no effect and 100 is complete control
[20] = Postemergence, 125 g ai/ha, 0 to 100 scale where 0 is no effect and 100 is complete control

O=C1CCCC(O)=C1C(=O)c1cnc(-c2ccccc2)n(-c2ccccc2F)c1=O [Compound 26]
100: Plant response rating, Pigweed [11, 16] | Plant response rating, Pigweed [11, 18] | Velvetleaf plant response rating [12, 15] | Plant response rating, Velvetleaf [12, 16] | Plant response rating, Velvetleaf [12, 18]
85: Plant response rating, Flood, Sedge, Umbrella [1] | Plant response rating, Flood, Ducksalad [4]
50: Foxtail, Giant plant response rating [8, 15] | Morningglory plant response rating [10, 15]
90: Plant response rating, Foxtail, Giant [8, 16] | Pigweed plant response rating [11, 15] | Plant response rating, Crabgrass, Large [13, 16] | Plant response rating, Crabgrass, Large [13, 18]
20: Plant response rating, Corn [9, 16] | Plant response rating, Velvetleaf [12, 17] | Plant response rating, Crabgrass, Large [13, 17]
60: Plant response rating, Barnyardgrass [7, 18] | Plant response rating, Pigweed [11, 17]
10: Plant response rating, Morningglory [10, 17]
75: Plant response rating, Sedge, Umbrella [1, 14] | Plant response rating, Ducksalad ([4]; Flood (flooded paddy test), 62 g ai/ha, scale 0 to 100, 0 is no effect, 100 is complete control, 13 to 15 days)
0: Plant response rating, Flood, Barnyardgrass [2] | Plant response rating, Barnyardgrass [2, 14] | Plant response rating, Flood, Rice [3] | Plant response rating, Rice [3, 14] | Plant response rating, Barley ([5]; Postemergence, 31 g ai/ha, scale 0 to 100 (0 no effect, 100 complete control)) | Plant response rating, Barley ([5]; Postemergence, 62 g ai/ha, scale 0 (no effect) to 100 (complete control), 13 to 15 days) | Plant response rating, Barley ([5]; Postemergence, 125 g ai/ha, scale 0 to 100 (0 no effect, 100 complete control), 13 to 15 days) | Barley plant response rating ([5]; Postemergence, 250 g ai/ha, scale 0 to 100) | Wheat plant response rating [6, 15] | Plant response rating, Wheat [6, 16] | Plant response rating, Wheat [6, 17] | Plant response rating, Wheat [6, 18] | Plant response rating, Barnyardgrass [7, 17] | Corn plant response rating [9, 15] | Plant response rating, Corn [9, 17] | Plant response rating, Corn [9, 18]
80: Plant response rating, Barnyardgrass [7, 16] | Plant response rating, Morningglory [10, 16]
70: Plant response rating, Foxtail, Giant [8, 18] | Plant response rating, Morningglory [10, 18] | Crabgrass, Large plant response rating [13, 15]
30: Barnyardgrass plant response rating [7, 15] | Plant response rating, Foxtail, Giant [8, 17]

COCCn1c(-c2cccc(C)c2)ncc(C(=O)C2=C(O)CCCC2=O)c1=O [Compound 117]
0: Plant response rating, Rice [3, 19] | Plant response rating, Barley ([5]; 31 g ai/ha, postemergence, scale 0 to 100, 0 is no effect, 100 is complete control) | Barley plant response rating (0 to 100 scale) ([5]; 62 g ai/ha, postemergence, 0 is no effect, 100 is complete control, 13 to 15 days) | Plant response rating, Barley ([5]; Postemergence, 125 g ai/ha, scale 0 to 100 (0 no effect, 100 complete control)) | Plant response rating, Barley ([5]; Postemergence, 250 g ai/ha, scale 0 to 100 (0 no effect, 100 complete control)) | Plant response rating, Wheat [6, 20] | Plant response rating, Wheat [6, 17] | Plant response rating, Corn [9, 17]
40: Plant response rating, Morningglory [10, 17]
80: Plant response rating, Barnyardgrass [7, 20] | Plant response rating, Foxtail, Giant [8, 16] | Plant response rating, Crabgrass, Large [13, 20]
60: Plant response rating, Crabgrass, Large [13, 17]
20: Plant response rating, Wheat [6, 18] | Plant response rating, Foxtail, Giant [8, 17] | Plant response rating, Corn [9, 20] | Plant response rating, Corn [9, 18]
95: Plant response rating, Flood, Sedge, Umbrella [1] | Plant response rating, Sedge, Umbrella [1, 19]
100: Plant response rating, Flood, Ducksalad [4] | Plant response rating, Morningglory [10, 20] | Plant response rating, Morningglory [10, 16] | Plant response rating, Pigweed [11, 20] | Plant response rating, Pigweed [11, 16] | Plant response rating, Pigweed [11, 18] | Plant response rating, Velvetleaf [12, 20] | Plant response rating, Velvetleaf [12, 16] | Plant response rating, Crabgrass, Large [13, 16] | Plant response rating, Crabgrass, Large [13, 18]
50: Plant response rating, Barnyardgrass [7, 17] | Plant response rating, Corn [9, 16]
70: Plant response rating, Foxtail, Giant [8, 20] | Plant response rating, Foxtail, Giant [8, 18] | Plant response rating, Velvetleaf [12, 17]
30: Plant response rating, Wheat [6, 16]
90: Plant response rating, Barnyardgrass [7, 16] | Plant response rating, Barnyardgrass [7, 18] | Plant response rating, Morningglory [10, 18] | Plant response rating, Pigweed [11, 17] | Plant response rating, Velvetleaf [12, 18]
65: Plant response rating, Barnyardgrass [2, 19]
15: Plant response rating, Flood, Rice [3]
75: Plant response rating, Flood, Barnyardgrass [2]
